Legend:
TcdB10463 [1] = target: T1, TcdB10463 (Clostridioides difficile, UniProt P18177); experiment: In vitro cleavage assay of TcdB10463 after pre-treatment with protease inhibitor EPNP; format: biochemical, Clostridium difficile
T1 construct: the TcdB10463, purified from culture supernate of C. difficile, used in the experiments; purchased tgcBIOMICS, Mainz, Germany; host or cells: Clostridium difficile VPI10463 culture supernatant
Method: TcdB10463 was purified as described in Example 1 (D) by means of affinity chromatography with the use of the monoclonal antibody 2CV and then pre-treated either (i) with the protease inhibitor EPNP (10 mM 1,2-epoxy-3-(p-nitrophenoxy)-propane) or (ii)—as control—with buffer (50 mM HEPES, 1M NaCl, 1 mM EDTA, pH 8.0) for 60 minutes at room temperature.
Then an in vitro cleavage assay analogous to Example 1 (A) was carried out. The test batches comprised respectively a volume of 10 μl, and contained respectively 50-100 ng unmarked TcdB10463, 100 μM IP6 and 10 mM tris-HCl pH 8.5. Following the incubation (1 h at room temperature), these test batches were subjected to a SDS-PAGE (10%) and the toxins and toxin fragments were then made visible by means of zinc stain.

TcdB10463 [2] = target: T1, TcdB10463; format: biochemical, Clostridium difficile
TcdB = TcdB (Clostridioides difficile, UniProt P18177); conditions: for Start of cell rounding after: CHO cells, TcdB pre-treated with polyclonal antiserum (1:100) 1 h at room temperature; for Neutralising effect of the polyclonal antiserum in the CHO test: antiserum of rabbits immunised with the preparation, dilution 1:100
TcdB, sequence (P18177 whole entry): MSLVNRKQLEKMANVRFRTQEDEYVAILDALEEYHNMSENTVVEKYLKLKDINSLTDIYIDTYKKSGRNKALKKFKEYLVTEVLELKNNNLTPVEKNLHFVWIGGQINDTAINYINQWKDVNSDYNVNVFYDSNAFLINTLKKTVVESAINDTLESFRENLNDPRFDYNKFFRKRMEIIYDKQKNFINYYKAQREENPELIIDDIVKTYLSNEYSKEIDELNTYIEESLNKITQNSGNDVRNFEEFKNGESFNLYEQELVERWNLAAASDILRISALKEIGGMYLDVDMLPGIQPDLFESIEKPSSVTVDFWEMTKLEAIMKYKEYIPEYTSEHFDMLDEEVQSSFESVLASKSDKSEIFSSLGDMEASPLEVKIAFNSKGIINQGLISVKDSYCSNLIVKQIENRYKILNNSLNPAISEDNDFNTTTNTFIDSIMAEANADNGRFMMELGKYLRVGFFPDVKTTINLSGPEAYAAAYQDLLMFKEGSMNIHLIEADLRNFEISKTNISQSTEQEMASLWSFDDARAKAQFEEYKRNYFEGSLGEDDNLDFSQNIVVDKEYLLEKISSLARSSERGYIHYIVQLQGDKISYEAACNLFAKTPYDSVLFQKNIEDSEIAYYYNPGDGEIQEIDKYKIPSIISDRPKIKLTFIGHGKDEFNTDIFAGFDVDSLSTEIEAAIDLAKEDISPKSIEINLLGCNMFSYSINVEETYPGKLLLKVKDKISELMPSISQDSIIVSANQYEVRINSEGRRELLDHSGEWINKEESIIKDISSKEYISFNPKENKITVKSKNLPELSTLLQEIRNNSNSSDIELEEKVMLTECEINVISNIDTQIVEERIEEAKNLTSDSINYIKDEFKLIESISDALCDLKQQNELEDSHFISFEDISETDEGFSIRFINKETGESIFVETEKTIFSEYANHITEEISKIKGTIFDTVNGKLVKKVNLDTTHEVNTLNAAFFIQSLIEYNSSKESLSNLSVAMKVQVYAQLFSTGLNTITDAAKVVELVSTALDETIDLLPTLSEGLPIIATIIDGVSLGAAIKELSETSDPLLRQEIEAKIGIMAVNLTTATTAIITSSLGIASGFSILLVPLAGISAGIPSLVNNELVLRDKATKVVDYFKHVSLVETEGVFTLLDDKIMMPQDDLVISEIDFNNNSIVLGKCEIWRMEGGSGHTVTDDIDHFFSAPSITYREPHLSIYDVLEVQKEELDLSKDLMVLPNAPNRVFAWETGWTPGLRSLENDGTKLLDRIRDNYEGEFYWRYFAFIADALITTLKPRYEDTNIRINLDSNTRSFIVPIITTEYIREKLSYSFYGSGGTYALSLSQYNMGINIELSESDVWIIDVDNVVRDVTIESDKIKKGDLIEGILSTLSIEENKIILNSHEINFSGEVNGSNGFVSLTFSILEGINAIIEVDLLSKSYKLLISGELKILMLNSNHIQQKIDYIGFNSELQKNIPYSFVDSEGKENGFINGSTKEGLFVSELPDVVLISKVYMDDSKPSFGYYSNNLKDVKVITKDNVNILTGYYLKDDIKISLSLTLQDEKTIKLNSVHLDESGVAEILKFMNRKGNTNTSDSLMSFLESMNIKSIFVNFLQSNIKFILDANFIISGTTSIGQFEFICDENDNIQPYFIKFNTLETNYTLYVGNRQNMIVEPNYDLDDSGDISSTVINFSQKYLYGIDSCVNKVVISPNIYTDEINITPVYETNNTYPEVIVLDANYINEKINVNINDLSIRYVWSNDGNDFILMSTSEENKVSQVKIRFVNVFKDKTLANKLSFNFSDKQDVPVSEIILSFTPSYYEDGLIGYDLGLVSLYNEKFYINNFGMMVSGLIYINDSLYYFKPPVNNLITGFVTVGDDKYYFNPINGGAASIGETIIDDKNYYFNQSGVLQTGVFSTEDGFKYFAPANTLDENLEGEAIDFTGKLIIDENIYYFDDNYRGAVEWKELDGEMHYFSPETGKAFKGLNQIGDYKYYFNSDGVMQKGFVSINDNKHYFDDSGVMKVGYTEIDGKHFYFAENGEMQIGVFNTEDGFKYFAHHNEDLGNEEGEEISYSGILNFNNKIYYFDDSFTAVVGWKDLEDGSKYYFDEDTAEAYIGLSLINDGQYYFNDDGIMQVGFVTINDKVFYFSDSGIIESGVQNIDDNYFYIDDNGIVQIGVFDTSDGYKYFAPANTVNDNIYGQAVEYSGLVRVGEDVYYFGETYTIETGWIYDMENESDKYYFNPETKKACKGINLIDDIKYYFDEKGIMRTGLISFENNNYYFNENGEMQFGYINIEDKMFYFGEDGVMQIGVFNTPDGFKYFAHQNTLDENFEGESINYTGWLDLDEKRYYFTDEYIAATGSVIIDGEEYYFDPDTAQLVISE
Method: The CHO test was carried out as follows: In a 96 well microtiter plate, CHO cells (=Chinese hamster ovarial cells) were disseminated (5000 cells/well) and incubated for 16 hours under standard conditions (5% CO2, DMEM F12 supplemented with […] L-glutamins, 5% FCS). The toxins were then introduced to the cells after gradual dilution in growth medium. Dilution stages between 10° and 10^−8 were tested. The cells were incubated for 3 hours under standard conditions. Then the proportion of rounded cells was determined microscopically, by several representative sections of the well being photographed and the elongated and the rounded cells being counted. (See also Moos et al., Meth Enzymol. 2000, 325: 114-125. Reference is made here expressly to the content of this publication).
In order to check the neutralising effect of the polyclonal antiserums, firstly TcdB was pre-treated with polyclonal antiserum (dilution stage 1:100) and incubated for 1 h at room temperature. Then the neutralising effect of the antiserums was checked as described in Example 2 with the aid of the CHO test. The measurement for the neutalising effect of the serums was how long the cells were protected from the cytotoxic effect of the TcdB.

T1 sequence (P18177 whole entry): as above

## O=[N+]([O-])c1ccc(OCC2CO2)cc1 (centres unmarked) [EPNP, 1,2-epoxy-3-(p-nitrophenoxy)-propane]
TcdB10463 [1]; TcdB10463 pre-treated with EPNP, after incubation with IP6 (FIG. 2, Line 2)
  63 kD band in SDS-PAGE: only weakly formed
TcdB10463 [1]; pre-treatment with 10 mM EPNP 60 minutes, then 100 μM IP6 1 h at room temperature
  Proteolytic activity (protease activity) of TcdB10463: almost completely inhibited

## O=P(O)(O)O[C@H]1[C@H](OP(=O)(O)O)[C@@H](OP(=O)(O)O)[C@H](OP(=O)(O)O)[C@@H](OP(=O)(O)O)[C@H]1OP(=O)(O)O [IP 1, 2, 3, 4, 5, 6, inositol hexaphosphate]
TcdB10463 [2]
  Cleavage activity (initiator activity) amongst the tested inositol phosphates: strongest cleavage activity
  Cleavage of the holotoxin into 63 kDa and 207 kDa fragments: complete cleavage

B1: Preparation C: TcdB fragment AS1601-1716 (DSG motif) (protein, UniProt P18177 1601-1716, looked up, fragment)
chain: NIKFILDANFIISGTTSIGQFEFICDENDNIQPYFIKFNTLETNYTLYVGNRQNMIVEPNYDLDDSGDISSTVINFSQKYLYGIDSCVNKVVISPNIYTDEINITPVYETNNTYPE
TcdB
  Start of cell rounding after: 12 to 15 h
  Neutralising effect of the polyclonal antiserum in the CHO test: smaller neutralising effect

B2: Preparation D: TcdB fragment AS1508-1601 (part of the inosine-binding motif) (protein, UniProt P18177 1508-1601, looked up, fragment)
chain: YYSNNLKDVKVITKDNVNILTGYYLKDDIKISLSLTLQDEKTIKLNSVHLDESGVAEILKFMNRKGNTNTSDSLMSFLESMNIKSIFVNFLQSN
TcdB
  Start of cell rounding after: 9 to 12 h
  Neutralising effect of the polyclonal antiserum in the CHO test: smaller neutralising effect

Reference: patent publication US9066961B2, “Medicament for LCT poisoning” (JOHANNES GUTENBERG-UN[…], priority 2006, dated 2015)
